This passage reports IC50 results from EP0705259B1, “PHENYRROLE DERIVATIVES AND THEIR USE AS DOPAMINE D3 ANTAGONISTS” (SMITHKLINE BEECHAM PLC, priority 1993, dated 1995).

Structures can show the parent of a compound that is named as a salt.

In this experiment the target is T1, human D3 dopamine receptors (Homo sapiens, UniProt P35462).
T1 construct: expressed in transfected cells; host or cells: CHO cells (crude cell membranes)
T1 sequence (P35462 whole entry): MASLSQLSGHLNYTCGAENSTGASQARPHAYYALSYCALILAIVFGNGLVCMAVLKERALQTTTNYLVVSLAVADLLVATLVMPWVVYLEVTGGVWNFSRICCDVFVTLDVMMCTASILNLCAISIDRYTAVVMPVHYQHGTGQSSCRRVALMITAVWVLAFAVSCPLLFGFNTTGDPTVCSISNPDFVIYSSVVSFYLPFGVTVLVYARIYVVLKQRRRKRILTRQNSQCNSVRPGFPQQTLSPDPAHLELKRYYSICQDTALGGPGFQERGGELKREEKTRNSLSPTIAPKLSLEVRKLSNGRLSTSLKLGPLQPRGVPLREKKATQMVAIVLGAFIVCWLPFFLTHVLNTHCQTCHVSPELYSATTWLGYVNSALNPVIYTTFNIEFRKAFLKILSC
Nature of the experiment: biochemical. It is filed as binding. The note with it: human D3 receptor; CHO cell membranes, 0.1 nM [125I] iodosulpride, 30 min at 37°C. The protocol: Cultures were grown as monolayers or in suspension in standard cell culture media. Cells were recovered by scraping (from monolayers) or by centrifugation (from suspension cultures), and were washed two or three times by suspension in phosphate buffered saline followed by collection by centrifugation. Cell pellets were stored frozen at -40°C. Crude cell membranes were prepared by homogenisation followed by high-speed centrifugation, and characterisation of cloned receptors achieved by radioligand binding.
Cell pellets were gently thawed at room temperature, and resuspended in about 20 volumes of ice-cold 50 mM Tris salts (pH 7.4 @ 37°C), 20mM EDTA, 0.2 M sucrose. The suspension was homogenised using an Ultra-Turrax (TM) at full speed for 15 sec. The homogenate was centrifuged at 18,000 r.p.m for 20 min at 4°C in a Sorvall RC5C centrifuge. The membrane pellet was resuspended in ice-cold 50 mM Tris salts (pH 7.4 @ 37°C), using an Ultra-Turrax (TM), and recentrifuged at 18,000 r.p.m for 15 min at 4°C in a Sorvall RC5C. The membranes were washed two more times with ice-cold 50 mM Tris salts (pH 7.4 @ 37°C). The final pellet was resuspended in 50 mM Tris salts (pH 7.4 @ 37°C), and the protein content determined using bovine serum albumin as a standard (Bradford, M. M. (1976) Anal. Biochem. 72, 248-254).
Crude cell membranes were incubated with 0.1 nM [^125I] iodosulpride (∼2000 Ci/mmol; Amersham, U. K.), and the test compound in a buffer containing 50 mM Tris salts (pH 7.4 @ 37°C), 120 mM NaCl, 5 mM KCl, 2 mM CaCl2, 1 mM MgCl2, 0.1% (w/v) bovine serum albumin, in a total volume of 1 ml for 30 min at 37°C. Following incubation with the test compound, samples were filtered using a Brandel Cell Harvester (TM), and washed three times with ice-cold 50 mM Tris salts (pH 7.4 @ 37°C), 120 mM NaCl, 5 mM KCl, 2 mM CaCl2, 1 mM MgCl2. The radioactivity on the filters was measured using a Cobra (TM) gamma counter (Canberra Packard). Non-specific binding was defined as the radioligand binding remaining after incubation in the presence of 100 µM iodosulpride. For competition curves, 14 concentrations (half-log dilutions) of competing cold drug were used.
Competition curves were analysed simultaneously whenever possible using non-linear least-squares fitting procedures, capable of fitting one, two or three site models.
With `CCS(=O)(=O)c1ccc(OC)c(-c2ccc(CN3CCCCCC3c3ccccc3)[nH]2)c1` (racemic) [Example 3, 2-(5-Ethylsulphonyl-2-methoxyphenyl)-5-(1-(2-(R,S)-phenylazacycloheptyl)-methyl)-1H-pyrrole, hydrochloride], the IC50 (in general, the midpoint of a concentration-inhibition curve) fell in the range of 1 to 50 nM. For `COc1ccc(S(=O)(=O)N2CCOCC2)cc1-c1ccc(CN2CCCCC[C@@H]2c2ccccc2)[nH]1` [Example 13, 2-(2-Methoxy-5-(4-morpholinyl)sulphonylphenyl)-5-(1-(2-(R)-phenylazacycloheptyl)methyl)-1H-pyrrole, oxalate] the value was 1 to 50 nM; for `CCS(=O)(=O)c1ccc(OC)c(-c2ccc(CN3CCCCC[C@H]3c3ccccc3)[nH]2)c1` [Example 11, 2-(5-Ethylsulphonyl-2-methoxyphenyl)-5-(1-(2-(S)-phenylazacycloheptyl)methyl)-1H-pyrrole, oxalate], 1 to 50 nM. Turning to `CCS(=O)(=O)c1ccc(OC)c(-c2ccc(CN3CCCCC[C@@H]3c3ccccc3)[nH]2)c1` [Example 10, 2-(5-Ethylsulphonyl-2-methoxyphenyl)-5-(1-(2-(R)-phenylazacycloheptyl)methyl)-1H-pyrrole, oxalate], the IC50 fell in the range of 1 to 50 nM. `CCS(=O)(=O)c1cc(Br)c(OC)c(-c2ccc(CN3CCCCCC3c3ccccc3)[nH]2)c1` (racemic) [Example 6, 2-(3-Bromo-5-ethylsulphonyl-2-methoxyphenyl)-5-(1-(2-(R,S)-phenylazacycloheptyl)methyl)-1H-pyrrole, hydrochloride] had an IC50 of 1 to 50 nM.
